From PubChem BioAssay AID248 (DTP/NCI, 2004)
Several values for one entry are separate records, joined by “and”; a condition that tells them apart may be missing. Identical values can stand only once. Inconclusive results and toxic doses are left out. Cut-off read from the data, not from the text of the source: active = T/C of 150% or more; inactive = T/C below 125%. Numbered stars: 1 amine (or outer) side, 2 acyl side, 3 side chain; on linkers, the order of the positions; unused ones are H or OH. Bridge positions count the residues as written; N and C are the ends. Square brackets hold non-standard residues; d marks the D form. Peptide text beside a SMILES is read from it. I, II: the chains in the order shown. Actinocin(9to1) = Cc1c2oc3c(C)ccc(C(=O)[*:1])c3nc-2c(C(=O)[*:2])c(N)c1=O; NMeV = CN[CH](C(=O)O)C(C)C; Sar = CNCC(=O)O

Test system: L1210 leukemia ip in BDF1 mice, survival T/C
Test: NCI In Vivo Anticancer Drug Screen. Data for tumor model L1210 Leukemia (intraperitoneal) in B6D2F1 (BDF1) mice
Details: endpoint: mean survival time, higher = longer survival
Outline: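 Mice bearing the transplanted tumor received compound or vehicle. Survival of the treated group was divided by that of the vehicle-treated control group to give the ratio.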

[1] = dose: 100.0 mg/kg/injection, schedule: Q01DX001 (ip), vehicle: carboxymethylcellulose (CMC)
[2] = dose: 200.0 mg/kg/injection, schedule: Q01DX001 (ip), vehicle: carboxymethylcellulose (CMC)
[3] = dose: 400.0 mg/kg/injection, schedule: Q01DX001 (ip), vehicle: carboxymethylcellulose (CMC)
[4] = dose: 100.0 mg/kg/injection, schedule: Q01DX009 (ip), vehicle: saline with Tween-80
[5] = dose: 100.0 mg/kg/injection, schedule: Q04DX003 (ip), vehicle: saline with Tween-80
[6] = dose: 50.0 mg/kg/injection, schedule: Q04DX002 (ip), vehicle: Klucel (hydroxypropylcellulose) (HPC)
[7] = dose: 100.0 mg/kg/injection, schedule: Q04DX002 (ip), vehicle: Klucel (hydroxypropylcellulose) (HPC)
[8] = dose: 50.0 mg/kg/injection, schedule: Q01DX009 (ip), vehicle: saline with Tween-80

Measured: T/C

CCCCCCCCCCCCCCCCCCc1cc(C)ccc1C
inactive: dose: 100.0 mg/kg/injection, schedule: Q01DX001 (ip), vehicle: other 107 % of control | dose: 200.0 mg/kg/injection, schedule: Q01DX001 (ip), vehicle: other 90 % of control | dose: 400.0 mg/kg/injection, schedule: Q01DX001 (ip), vehicle: other 104 % of control

CCOP(=S)(N/N=C\C(C)(C)C1CCCCC1)OCC
inactive: [1] 94 % of control | [2] 91 % of control | [3] 98 % of control

NC(=S)C(=S)NCCO
inactive: [4] 103 % of control | [5] 100 % of control | dose: 200.0 mg/kg/injection, schedule: Q01DX009 (ip), vehicle: saline with Tween-80 94 % of control | dose: 200.0 mg/kg/injection, schedule: Q04DX003 (ip), vehicle: saline with Tween-80 93 % of control | dose: 400.0 mg/kg/injection, schedule: Q01DX009 (ip), vehicle: saline with Tween-80 100 % of control | dose: 400.0 mg/kg/injection, schedule: Q04DX003 (ip), vehicle: saline with Tween-80 93 % of control

N#Cc1ccc(/C=C\c2ccc(C#N)cc2)cc1
inactive: dose: 0.6 mg/kg/injection, schedule: Q04DX002 (ip), vehicle: Klucel (hydroxypropylcellulose) (HPC) 104 % of control | dose: 1.2 mg/kg/injection, schedule: Q04DX002 (ip), vehicle: Klucel (hydroxypropylcellulose) (HPC) 104 % of control | dose: 2.5 mg/kg/injection, schedule: Q04DX002 (ip), vehicle: Klucel (hydroxypropylcellulose) (HPC) 97 % of control | [6] 104 % of control | [7] 104 % of control and 122 % of control | dose: 200.0 mg/kg/injection, schedule: Q04DX002 (ip), vehicle: Klucel (hydroxypropylcellulose) (HPC) 109 % of control and 110 % of control | dose: 400.0 mg/kg/injection, schedule: Q04DX002 (ip), vehicle: Klucel (hydroxypropylcellulose) (HPC) 98 % of control

CC1OC(C2COC(C)(C)O2)C2OC(C)(C)OC12 (centres undefined)
inactive: dose: 100.0 mg/kg/injection, schedule: Q01DX001 (ip), vehicle: saline with Tween-80 101 % of control | dose: 200.0 mg/kg/injection, schedule: Q01DX001 (ip), vehicle: saline with Tween-80 101 % of control | dose: 400.0 mg/kg/injection, schedule: Q01DX001 (ip), vehicle: saline with Tween-80 101 % of control

CN1CCc2ccc(Oc3cccc4c3CCN(C)C4)cc2C1
inactive: dose: 75.0 mg/kg/injection, schedule: Q01DX001 (ip), vehicle: other 112 % of control | dose: 150.0 mg/kg/injection, schedule: Q01DX001 (ip), vehicle: other 92 % of control

N/C(=N/N=C/c1ccccc1)N/N=C\c1ccccc1
inactive: dose: 15.0 mg/kg/injection, schedule: Q01DX Z (oral), vehicle: saline 95 % of control | dose: 30.0 mg/kg/injection, schedule: Q01DX Z (oral), vehicle: saline 95 % of control | dose: 60.0 mg/kg/injection, schedule: Q01DX Z (oral), vehicle: saline 91 % of control | dose: 120.0 mg/kg/injection, schedule: Q01DX Z (oral), vehicle: saline 95 % of control

C/C(=N\NC(=O)C1CCCO1)c1cccc2ccccc12 (centres undefined)
inactive: dose: 12.5 mg/kg/injection, schedule: Q01DX009 (ip), vehicle: Klucel (hydroxypropylcellulose) (HPC) 97 % of control | dose: 25.0 mg/kg/injection, schedule: Q01DX009 (ip), vehicle: Klucel (hydroxypropylcellulose) (HPC) 114 % of control

Nc1ncc([N+](=O)[O-])s1
inactive: dose: 25.0 mg/kg/injection, schedule: Q04DX002 (ip), vehicle: Klucel (hydroxypropylcellulose) (HPC) 95 % of control | dose: 50.0 mg/kg/injection, schedule: Q01DX001 (ip), vehicle: saline 98 % of control | [6] 98 % of control | dose: 100.0 mg/kg/injection, schedule: Q01DX001 (ip), vehicle: saline 98 % of control | [7] 115 % of control | dose: 200.0 mg/kg/injection, schedule: Q01DX001 (ip), vehicle: saline 98 % of control

O=C(CCN1CC=C(c2ccccc2)CC1)c1ccc(N2CC=C(c3ccccc3)CC2)cc1
inactive: dose: 75.0 mg/kg/injection, schedule: Q04DX002 (ip), vehicle: saline with Tween-80 100 % of control | dose: 150.0 mg/kg/injection, schedule: Q04DX002 (ip), vehicle: saline with Tween-80 100 % of control | dose: 300.0 mg/kg/injection, schedule: Q04DX002 (ip), vehicle: saline with Tween-80 107 % of control

Cc1c2oc3c(C)ccc(C(=O)NC4C(=O)NC(C(C)C)C(=O)N(C)CC(=O)N(C)CC(=O)N(C)C(C(C)C)C(=O)OC4C)c3nc-2c(C(=O)NC2C(=O)NC(C(C)C)C(=O)N(C)CC(=O)N(C)CC(=O)N(C)C(C(C)C)C(=O)OC2C)c(N)c1=O (centres undefined) (I: TV[Sar][Sar][NMeV] / II: TV[Sar][Sar][NMeV]; ester I:1-I:C, II:1-II:C; linker I:N-II:N via Actinocin(9to1); configuration not given here)
inactive: dose: 0.05 mg/kg/injection, schedule: Q01DX009 (ip), vehicle: other 94 % of control | dose: 0.1 mg/kg/injection, schedule: Q01DX009 (ip), vehicle: other 108 % of control | dose: 0.2 mg/kg/injection, schedule: Q01DX009 (ip), vehicle: other 106 % of control | dose: 0.4 mg/kg/injection, schedule: Q01DX009 (ip), vehicle: other 115 % of control | dose: 0.5 mg/kg/injection, schedule: Q01DX001 (ip), vehicle: saline + alcohol 105 % of control | dose: 0.8 mg/kg/injection, schedule: Q01DX009 (ip), vehicle: other 120 % of control | dose: 1.0 mg/kg/injection, schedule: Q01DX001 (ip), vehicle: saline + alcohol 112 % of control | dose: 1.6 mg/kg/injection, schedule: Q01DX009 (ip), vehicle: other 92 % of control | dose: 2.0 mg/kg/injection, schedule: Q01DX001 (ip), vehicle: saline + alcohol 116 % of control | dose: 4.0 mg/kg/injection, schedule: Q01DX001 (ip), vehicle: saline + alcohol 113 % of control | dose: 62.5 micrograms/kg/injection, schedule: Q01DX009 (ip), vehicle: saline + alcohol 105 % of control | dose: 125.0 micrograms/kg/injection, schedule: Q01DX009 (ip), vehicle: saline + alcohol 112 % of control | dose: 188.0 micrograms/kg/injection, schedule: Q04DX003 (ip), vehicle: saline + alcohol 107 % of control | dose: 250.0 micrograms/kg/injection, schedule: Q01DX009 (ip), vehicle: saline + alcohol 119 % of control | dose: 375.0 micrograms/kg/injection, schedule: Q04DX003 (ip), vehicle: saline + alcohol 106 % of control | dose: 750.0 micrograms/kg/injection, schedule: Q04DX003 (ip), vehicle: saline + alcohol 112 % of control | dose: 1500.0 micrograms/kg/injection, schedule: Q04DX003 (ip), vehicle: saline + alcohol 119 % of control

CN(C)Cc1cc2ccccc2cc1C(O)(c1ccccc1)c1ccccc1
inactive: dose: 50.0 mg/kg/injection, schedule: Q01DX001 (ip), vehicle: carboxymethylcellulose (CMC) 102 % of control | [1] 88 % of control | [2] 94 % of control | [3] 96 % of control

O=C(NCCBr)Nc1ccc([N+](=O)[O-])cc1
inactive: [8] 90 % of control | [4] 87 % of control

CCOC(=O)C(CCC#N)C1=NC(C)(C)CC(C)O1 (centres undefined)
inactive: dose: 100.0 mg/kg/injection, schedule: Q01DX001 (ip), vehicle: Klucel (hydroxypropylcellulose) (HPC) 97 % of control | dose: 200.0 mg/kg/injection, schedule: Q01DX001 (ip), vehicle: Klucel (hydroxypropylcellulose) (HPC) 101 % of control | dose: 400.0 mg/kg/injection, schedule: Q01DX001 (ip), vehicle: Klucel (hydroxypropylcellulose) (HPC) 103 % of control

NNC(=O)OC12CC3CC(CC(C3)C1)C2
inactive: dose: 25.0 mg/kg/injection, schedule: Q01DX009 (ip), vehicle: saline with Tween-80 90 % of control | [8] 88 % of control | [4] 98 % of control | [5] 94 % of control

O=S(=O)(CCl)Nc1ccncc1
inactive: dose: 100.0 mg/kg/injection, schedule: Q04DX013 (ip), vehicle: carboxymethylcellulose (CMC) 101 % of control | dose: 200.0 mg/kg/injection, schedule: Q04DX013 (ip), vehicle: carboxymethylcellulose (CMC) 100 % of control | dose: 400.0 mg/kg/injection, schedule: Q04DX013 (ip), vehicle: carboxymethylcellulose (CMC) 100 % of control

O=Cc1cc(Cl)cc(Cl)c1OC(=O)c1ccccc1
inactive: dose: 100.0 mg/kg/injection, schedule: Q01DX009 (ip), vehicle: Klucel (hydroxypropylcellulose) (HPC) 97 % of control | dose: 200.0 mg/kg/injection, schedule: Q01DX009 (ip), vehicle: Klucel (hydroxypropylcellulose) (HPC) 92 % of control
